Paper PMC12680612, “Metabolic engineering and late-stage functionalization expand the chemical space of the antimalarial premarineosin A” (Communications Chemistry, 2025)
Like-named read-outs stand apart in the source and are kept apart here.

Columns and labels:
[1] = tested on: Plasmodium falciparum 3D7 (chloroquine-sensitive); assay: In vitro antimalarial growth inhibition assay (SYBR green), 3D7; assay type: cell-based; conditions: for EC50: Plasmodium falciparum
Description: The antimalarial growth inhibition assay was performed as described previously. […] Tested compounds were threefold diluted in triplicate with concentrations ranging from 20 – 0.001 µM/10 – 0.0005 µM. The parasites were incubated with the drug at 37 °C under mixed gas (5% O2, 5% CO2, and 90% N2) conditions for 48 h. DNA was released from the cultured parasite and stained with SYBR green dye. The plate was placed in the dark with gentle agitation for 1 h, and signals were read in a FLUOstar OPTIMA reader (BMG Labtech, Germany). Data from the microplate reader were analyzed as described previously[68] and plotted using Prism 9.0 software (GraphPad Software, Inc., San Diego, CA). Each in vitro experiment was performed in triplicate wells and repeated twice. Response Curves (CRCs) were plotted in GraphPad Prism (GraphPad Software, Inc.) with error bars representing the standard deviation of three replicate wells (Supplementary Fig. 10).

[2] = tested on: Plasmodium falciparum Dd2 (chloroquine-resistant); assay: In vitro antimalarial growth inhibition assay (SYBR green), Dd2; assay type: cell-based; conditions: for EC50: Plasmodium falciparum, read-out: In vitro activity EC50 ± SD P. falciparum Dd2; for Fold more potent than chloroquine, Dd2: Dd2, versus chloroquine
Description: The antimalarial growth inhibition assay was performed as described previously. Briefly, the Plasmodium falciparum Dd2 and 3D7 parasites were diluted to 0.75% parasitemia with 2% hematocrit, and 50 μL diluted parasites were added to each well in a 96-well plate containing 50 μL of properly diluted drugs. Tested compounds were threefold diluted in triplicate with concentrations ranging from 20 – 0.001 µM/10 – 0.0005 µM. The parasites were incubated with the drug at 37 °C under mixed gas (5% O2, 5% CO2, and 90% N2) conditions for 48 h. DNA was released from the cultured parasite and stained with SYBR green dye. The plate was placed in the dark with gentle agitation for 1 h, and signals were read in a FLUOstar OPTIMA reader (BMG Labtech, Germany). Data from the microplate reader were analyzed as described previously[68] and plotted using Prism 9.0 software (GraphPad Software, Inc., San Diego, CA). Each in vitro experiment was performed in triplicate wells and repeated twice. Response Curves (CRCs) were plotted in GraphPad Prism (GraphPad Software, Inc.) with error bars representing the standard deviation of three replicate wells (Supplementary Fig. 10).

[3] = CellTiter-Glo cell viability assay (cytotoxicity), HEK293; assay type: cell-based; conditions: human, HEK293, 72 h treatment, read-out: In vitro cytotoxicity EC50 ± SD HEK293
Description: (§1) Cells were obtained from the following sources: HEK293 (ATCC, cat # CRL-1573), MOLT-4 (ATCC, cat # CRL-1582). Cell lines were routinely tested for Mycoplasma contamination with the MycoAlert PLUS Mycoplasma Detection Kit (Lonza Bioscience, cat # LT07) according to manufacturer protocol. Cell number and cell viability were measured using the Countess Automated Cell Counter (Invitrogen) using Trypan blue stain (Invitrogen, cat # T10282). Human embryonic kidney HEK293 cells were maintained in DMEM with high glucose and GlutaMAX (Gibco, cat # 10566016) supplemented with 10% HyClone Characterized Fetal Bovine Serum (Cytiva, cat # SH30071.03), and 100 µ mL^−1 Penicillin-Streptomycin (Gibco, cat # 15140122). Human T lymphoblast MOLT-4 cells were maintained in RPMI 1640 Medium (Gibco, cat # 11875093) supplemented with 10% HyClone Characterized Fetal Bovine Serum (Cytiva, cat # SH30071.03), 100 µ mL^−1 Penicillin-Streptomycin (Gibco, cat # 15140122), and 10 mM HEPES (Gibco, 15630080). Cells were cultured in incubators maintained at 37 °C with 5% CO2 and 95% relative humidity.
(§2) The CTG assay (Promega, cat # G7572) was used to quantify cellular ATP according to manufacturer protocols. The Multidrop Combi liquid dispenser (ThermoFisher) was used to dispense 4 µL of cells into white 1536-well microplates (Corning, cat # 7464) at a density of 1500 cells/well. Plated cells were incubated overnight. (−)-Premarineosin A (3) and derivatives were transferred into respective wells of each plate at 25 nL/well with the mosquito (SPT Labtech) in 16-pt, 1:3 titrations for a final concentration of 125 µM–8.71 pM for compounds with a high concentration of 20 mM, or 62.5 µM–4.36 pM for compounds with a high concentration of 10 mM. Controls were transferred into respective wells of each plate at 25 nL/well with the mosquito with a 16-pt, 1:2 titration of Digitonin for a final concentration of 125 µM–3.81 nM. The final concentration of DMSO was 0.58%. Cells were incubated for either 24, 48, and 72 h, after which point 3 µL/well of CTG was transferred to each plate with the BioRaptr 2.0 FRD (LetsGoRobotics). Plates were incubated for 10 min in the dark at ambient temperature for 10 min. Luminescence was measured using a ViewLux 1430Ultra HTS (PerkinElmer) with the following optical settings: exposure = 1 s, gain = high, speed = slow, binning = 2X. Dimethyl sulfoxide (“DMSO”; AMRESCO, cat # RGE-3070) was used as a vehicle control. Digitonin (Sigma-Aldrich, cat # D141) was prepared as a 20 mM stock solution in DMSO and stored at −30 °C for use as a cytotoxicity control. (−)-Premarineosin A (3) and derivatives were prepared at either 10 mM or 20 mM stock solutions in DMSO. Data were normalized to 125 µM Digitonin as −100% inhibition in a row-wise manner across the plate. Normalization was performed in Excel (Microsoft) and Concentration Response Curves (CRCs) were plotted in GraphPad Prism (GraphPad Software, Inc.) with error bars representing the standard deviation of four replicate wells (Supplementary Fig. 9).

[4] = CellTiter-Glo cell viability assay (cytotoxicity), MOLT4; assay type: cell-based; conditions: human, MOLT4, 72 h treatment, read-out: In vitro cytotoxicity EC50 ± SD MOLT4
Description: as §1, §2

Plasmodium = tested on: Plasmodium; set-up: method as in PMID 24575817, PMID 19007176; conditions: cited from earlier work
[5] = 3D7 chloroquine-sensitive, 48 h treatment
[6] = 3D7 chloroquine-sensitive, 48 h treatment, read-out: In vitro activity EC50 ± SD P. falciparum 3D7
[7] = Dd2 chloroquine-resistant, 48 h treatment
[8] = MOLT-4 T-cell leukemia (T lymphoblast) cells
[9] = 3D7, 48 h, read-out: In vitro activity EC50 ± SD P. falciparum 3D7

| Structure (SMILES) | EC50 [1, 6] | EC50 [2, 7] | EC50 [1, 9] | EC50 ([2]; DD2, 48 h) | EC50 at 72 h [3] | EC50 at 72 h [4] | also measured |
| --- | --- | --- | --- | --- | --- | --- | --- |
| COC1=CC(c2ccc[nH]2)=N[C@@]12O[C@H](C)C[C@H]1CCCCCCCc3[nH]c(cc3C(C)=O)[C@@H]12 [compound 9, 12-acetyl premarineosin A] | 0.178 ± 0.025 µM | 0.18 ± 0.014 µM | – | – | – | – | In vitro activity EC50 ± SD P. falciparum 3D7 [1, 5]: sub-micromolar; In vitro activity EC50 ± SD P. falciparum Dd2 [2, 7]: sub-micromolar; EC50 at 72 h ([3]; HEK293 embryonic kidney cells): 6.59 ± 3.02 µM; EC50 at 72 h [4, 8]: 3.67 ± 1.01 µM |
| COC1=CC(c2ccc[nH]2)=N[C@@]12O[C@H](C)C[C@H]1CCCCCCCc3[nH]c(cc3C(C)(C)c3cc4[nH]c3CCCCCCC[C@@H]3C[C@@H](C)O[C@@]5(N=C(c6ccc[nH]6)C=C5OC)[C@@H]43)[C@@H]12 [compound 4, gem-dimethyl-bridged premarineosin A] | – | – | 1.89 ± 0.243 µM | 1.24 ± 0.168 µM | 8.29 ± 1.66 µM | 2.26 ± 0.777 µM | – |
| COC1=CC(c2ccc[nH]2)=N[C@@]12O[C@H](C)C[C@H]1CCCCCCCc3[nH]c(cc3Br)[C@@H]12 [compound 12, 12-bromo premarineosin A] | – | – | 0.002 µM | 0.022 ± 0.011 µM | 1.63 ± 0.184 µM | 0.48 ± 0.084 µM | EC50 ([1]; 3D7, read-out: EC50 against P. falciparum): < 0.005 µM; Fold more potent than chloroquine, Dd2 [2]: 17 fold |
| CCN(CC)CCCC(C)Nc1ccnc2cc(Cl)ccc12 (stereo not drawn) [Chloroquine, reference compound] | – | – | 0.041 ± 0.003 µM | 0.382 ± 0.022 µM | – | – | – |
| COC1=CC(c2ccc[nH]2)=N[C@@]12O[C@H](C)C[C@H]1CCCCCCCc3[nH]c(cc3CO)[C@@H]12 [compound 10, 12-hydroxymethyl-premarineosin A] | 1.23 ± 0.53 µM | 0.704 ± 0.304 µM | – | – | 18.4 ± 6.7 µM | 19.7 ± 1.22 µM | – |
| COC1=CC(c2ccc[nH]2)=N[C@@]12O[C@H](C)C[C@H]1CCCCCCCc3[nH]c(cc3C(C)(c3cc4[nH]c3CCCCCCC[C@@H]3C[C@@H](C)O[C@@]5(N=C(c6ccc[nH]6)C=C5OC)[C@@H]43)C(F)(F)F)[C@@H]12 [compound 6, Trifluoromethyl-bridged premarineosin A] | 5.07 ± 1 µM | 2.32 ± 0.448 µM | – | – | – | – | EC50 at 72 h ([3]; HEK293 embryonic kidney cells): 11 ± 2.15 µM; EC50 at 72 h [4, 8]: 6.51 ± 2.74 µM |
| COC1=CC(c2ccc(Br)[nH]2)=N[C@@]12O[C@H](C)C[C@H]1CCCCCCCc3ccc([nH]3)[C@@H]12 [compound 11, 1-bromo premarineosin A] | – | – | 0.473 ± 0.113 µM | 0.259 ± 0.024 µM | 19.2 ± 1.73 µM | 1.33 ± 0.691 µM | – |
| C[C@H]1[C@H](OC(=O)CCC(=O)O)O[C@@H]2O[C@@]3(C)CC[C@H]4[C@H](C)CC[C@@H]1[C@@]24OO3 [Artesunate, reference compound] | 0.024 ± 0.006 µM | 0.008 ± 0.002 µM | – | – | – | – | – |
| COC1=CC(c2ccc[nH]2)=N[C@@]12O[C@H](C)C[C@H]1CCCCCCCc3[nH]c(cc3C(C)(O)C(F)(F)F)[C@@H]12 (stereo partly drawn) [compound 7, 12-trifluoropropanol premarineosin A] | 0.203 ± 0.01 µM | 0.087 ± 0.015 µM | – | – | – | – | In vitro activity EC50 ± SD P. falciparum 3D7 [1, 5]: sub-micromolar; In vitro activity EC50 ± SD P. falciparum Dd2 [2, 7]: sub-micromolar; EC50 at 72 h ([3]; HEK293 embryonic kidney cells): 4.21 ± 0.481 µM; EC50 at 72 h [4, 8]: 1.49 ± 0.388 µM |
| COC1=CC(c2ccc[nH]2)=N[C@@]12O[C@H](C)C[C@H]1CCCCCCCc3[nH]c(cc3C=O)[C@@H]12 [compound 8, 12-formyl premarineosin A] | 0.165 ± 0.055 µM | 0.222 ± 0.053 µM | – | – | 7.79 ± 1.62 µM | 6.63 ± 0.836 µM | In vitro activity EC50 ± SD P. falciparum 3D7 [1, 5]: sub-micromolar; In vitro activity EC50 ± SD P. falciparum Dd2 [2, 7]: sub-micromolar |
| COC1=CC(c2ccc[nH]2)=N[C@@]12O[C@H](C)C[C@H]1CCCCCCCc3ccc([nH]3)[C@@H]12 [compound 3, (−)-premarineosin A] | 0.004 ± 0.0001 µM | 0.001 ± 0.0007 µM | – | – | 1.47 ± 0.427 µM | 1.06 ± 0.336 µM | Fold more potent than artesunate, 3D7 ([1]; 3D7, versus artesunate): 6 fold; Fold more potent than chloroquine, 3D7 ([1]; 3D7, versus chloroquine): over 10 fold; Fold more potent than artesunate, Dd2 ([2]; Dd2, versus artesunate): 8 fold; Fold more potent than chloroquine, Dd2 [2]: > 350 fold; Antimalarial activity in vitro (Plasmodium): single-digit nanomolar |
| COC1=CC(c2ccc[nH]2)=N[C@@]12O[C@H](C)C[C@H]1CCCCCCCc3[nH]c(cc3Cc3cc4[nH]c3CCCCCCC[C@@H]3C[C@@H](C)O[C@@]5(N=C(c6ccc[nH]6)C=C5OC)[C@@H]43)[C@@H]12 [compound 5, Methylene-bridged premarineosin A] | 1.39 ± 0.265 µM | 0.548 ± 0.076 µM | – | – | 8.31 ± 1.46 µM | 1.16 ± 0.094 µM | – |
